According to patent US8188221B2, “Peptide homing to brain tumors” (Burnham Institute for Medical Research, priority 2008, dated 2012):
Ends that are not written are not given here.

Legend:
Assay type in all cases: in vivo, mice
[1] = test system: intracranial HIF-1alfa KO (HIFko) tumor; experiment: Homing of phage displaying CGLSGLGVA to intracranial islet tumors (phage titration of organs); details: peptide displayed on phage, 10^9 pfu into tail vein, 15 min circulation, perfusion, FIG. 1
Experimental: CGLSGLGVA or a control phage (10^9 pfu=plaque forming unit) were injected into the tail vein of intracranial HIF-1alfa KO (HIFko) tumor-bearing mice. After 15 min of circulation the mice were perfused through the heart with saline to remove unbound phage followed by excision of tumor containing brain, normal brain, liver, kidney and lungs. The number of phage homed to those organs were determined by titration.

[2] = test system: VEGF overexpressing (VEGF+) tumor; experiment: Homing of fluorescein-conjugated peptide to intracranial VEGF-overexpressing tumors (histology); details: 10 μg into tail vein, 60 min circulation, FIG. 3A
Experimental: Fluorescein-conjugated CGLSGLGVA peptide (10 μg) was injected into the tail vein of VEGF overexpressing (VEGF+) tumor-bearing mice. After 60 min of circulation tumor was excised and prepared for histological analysis. Peptide was visualized by using an antibody against fluorescein (rabbit anti-FITC, Zymed Laboratories). FIG. 3A. […] 3B: Same microscopic field as in 3A. Nuclei were visualized by DAPI staining (blue).

[3] = test system: intracranial HIFko islet tumors; experiment: Homing of fluorescein-conjugated peptide to intracranial HIFko islet tumors (histology, anti-FITC); details: 10 μg into tail vein, 60 min circulation
Experimental: Fluorescein-conjugated CGLSGLGVA peptide (10 μg) was injected into tail vein of HIFko tumor-bearing mice. After 60 min of circulation tumor-containing brain was excised and prepared for histological analysis. Peptide was visualized by using an antibody against fluorescein (rabbit anti-FITC, Zymed Laboratories). […] Presence of the tumor cells was confirmed by staining for the SV40 T-antigen specific for tumor cells from a subsequent section (green in FIG. 2B). FIGS. 2C and 2D show the same microscopic field as 2A and 2B. Nuclei were visualized by DAPI staining (blue).
(§1) Fluorescein-conjugated CGLSGLGVA peptide (10 μg) was injected into tail vein of murine HIFko or human U87MG intracranial xenograft bearing mice. After 60 min of circulation tumor-containing brain was excised and prepared for histological analysis. Peptide was visualized by using an antibody against fluorescein (rabbit anti-FITC, Zymed Laboratories). […] Nuclei were visualized by DAPI staining (blue).

subcutaneous HIFko tumor = experiment: Homing of fluorescein-conjugated peptide to subcutaneous HIFko tumors (histology); details: 10 μg into tail vein, 60 min circulation, FIG. 4A
Experimental: Fluorescein-conjugated CGLSGLGVA peptide (10 μg) was injected into the tail vein of subcutaneous HIFko tumor-bearing mice. After 60 min of circulation tumor was excised and prepared for histological analysis. Peptide was visualized by using an antibody against FITC (rabbit anti-FITC, Zymed Laboratories). FIG. 4A. […] FIG. 4B. Same microscopic field as in FIG. 4A. Nuclei were visualized by DAPI staining (blue).

[4] = test system: human U87MG intracranial xenograft; experiment: Homing and localization of fluorescein-conjugated peptide in intracranial U87MG tumors (histology, PECAM-1 co-staining)
Experimental: as §1
Fluorescein-conjugated CGLSGLGVA peptide (10 μg) was injected into the tail vein of intracranial human U87MG tumor-bearing mice. After 60 min of circulation tumor-containing brain was excised and prepared for histological analysis. Peptide was visualized by using an antibody against fluorescein (rabbit anti-FITC, Zymed Laboratories). […] Magnification in FIG. 6A, 200×; FIG. 6B, 400×.

| Substance | homing of phage to tumor containing brain versus normal brain, liver, kidney and lungs [1] | detection of peptide in tumor tissue [2] | detection of peptide in tumor islets and surrounding normal brain ([3]; FIG. 2) | homing pattern of peptide in tumor ([3]; murine HIFko intracranial tumor, FIG. 5A) | detection of peptide in tumor tissue (subcutaneous HIFko tumor) | homing to tumor ([4]; U87MG human glioblastoma xenografts, intravenous injection into the tail vein) | homing pattern of peptide in tumor ([4]; human U87MG intracranial xenograft, 10 μg into tail vein, 60 min circulation, FIG. 5B) | colocalization with endothelial cell marker PECAM-1 ([4]; intracranial U87MG tumor, 10 μg into tail vein, 60 min circulation, FIG. 6) |
| --- | --- | --- | --- | --- | --- | --- | --- | --- |
| CGLSGLGVA [novel nine amino acid long tumor-homing peptide] | very specifically homes to the intracranial, early stage astrocytoma model (HIFko) |  |  |  |  |  |  |  |
| Fluorescein-conjugated CGLSGLGVA peptide: CGLSGLGVA peptide conjugated to fluorescein, detected with anti-FITC antibody (also: fluorescein conjugate) |  | not detected in the tumor tissue | detected only in the tumor islets and not in the surrounding normal brain tissue | detected diffusively in the whole tumor tissue | not detected in the tumor tissue | homes to the U87MG human glioblastoma xenografts | peptide distribution resembled that of blood vessels | did not colocalize with the blood vessel marker PECAM-1 |
